Data as given in the supplement of paper PMC10307832.

Experiments:
Experiment in all cases: relative viability (nuclei count vs DMSO), 5 days (fraction); higher = more cells survive
AGI-6780 + OSI-027 = compound: O=C(Nc1cccc(C(F)(F)F)c1)Nc1cc(S(=O)(=O)NC2CC2)ccc1-c1ccsc1 [AGI-6780] + COc1cccc2cc(-c3nc([C@H]4CC[C@H](C(=O)O)CC4)n4ncnc(N)c34)[nH]c12 [OSI-027] (partner 0.5 µM)
In short: (§1)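 The day after seeding in 1536-well plates, lung cancer cell lines were treated by pin tool with a single drug, or with a fixed anchor-drug dose together with five library-drug doses (not always all listed) in √10 steps. After 5 days, a combined fix-and-stain solution (final 0.05% Triton X-100, 1% formaldehyde, 1 ug/ml Hoechst) was added. Nuclei counted on 4× images gave relative viability as treated counts over vehicle counts, reported as the median of duplicate plates.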

AGI-6780 + Crizotinib = compound: O=C(Nc1cccc(C(F)(F)F)c1)Nc1cc(S(=O)(=O)NC2CC2)ccc1-c1ccsc1 [AGI-6780] + C[C@@H](Oc1cc(-c2cnn(C3CCNCC3)c2)cnc1N)c1c(Cl)ccc(F)c1Cl [Crizotinib] (partner 1 µM)
In short: as §1

AGI-6780 + Linsitinib = compound: O=C(Nc1cccc(C(F)(F)F)c1)Nc1cc(S(=O)(=O)NC2CC2)ccc1-c1ccsc1 [AGI-6780] + C[C@]1(O)C[C@@H](c2nc(-c3ccc4ccc(-c5ccccc5)nc4c3)c3c(N)nccn32)C1 [Linsitinib] (partner 1 µM)
In short: as §1

AGI-6780 + Tozasertib = compound: O=C(Nc1cccc(C(F)(F)F)c1)Nc1cc(S(=O)(=O)NC2CC2)ccc1-c1ccsc1 [AGI-6780] + Cc1cc(Nc2cc(N3CCN(C)CC3)nc(Sc3ccc(NC(=O)C4CC4)cc3)n2)n[nH]1 [Tozasertib] (partner 0.1 µM)
In short: as §1

Row | Cell Line | relative viability (AGI-6780 + OSI-027; first compound 0.08 µM) | relative viability (AGI-6780 + OSI-027; first compound 0.253 µM) | relative viability (AGI-6780 + OSI-027; first compound 0.8 µM) | relative viability (AGI-6780 + OSI-027; first compound 2.53 µM) | relative viability (AGI-6780 + OSI-027; first compound 8 µM) | relative viability (AGI-6780 + Crizotinib; first compound 0.08 µM) | relative viability (AGI-6780 + Crizotinib; first compound 0.253 µM) | relative viability (AGI-6780 + Crizotinib; first compound 0.8 µM) | relative viability (AGI-6780 + Crizotinib; first compound 2.53 µM) | relative viability (AGI-6780 + Crizotinib; first compound 8 µM) | relative viability (AGI-6780 + Linsitinib; first compound 0.08 µM) | relative viability (AGI-6780 + Linsitinib; first compound 0.253 µM) | relative viability (AGI-6780 + Linsitinib; first compound 0.8 µM) | relative viability (AGI-6780 + Linsitinib; first compound 2.53 µM) | relative viability (AGI-6780 + Linsitinib; first compound 8 µM) | relative viability (AGI-6780 + Tozasertib; first compound 0.08 µM) | relative viability (AGI-6780 + Tozasertib; first compound 0.253 µM) | relative viability (AGI-6780 + Tozasertib; first compound 0.8 µM) | relative viability (AGI-6780 + Tozasertib; first compound 2.53 µM) | relative viability (AGI-6780 + Tozasertib; first compound 8 µM)
1 | NCI-H2126 | 0.711 | 0.88 | 0.742 | 0.618 | 0.815 | 1.1 | 1.01 | 1.03 | 1.02 | 1.05 | 0.761 | 0.802 | 0.709 | 0.585 | 0.712 | 0.82 | 0.838 | 0.89 | 0.726 | 0.857
2 | LXF-289 | 0.862 | 0.843 | 0.844 | 0.666 | 0.921 | 0.84 | 0.798 | 0.795 | 0.83 | 0.771 | 0.952 | 1.01 | 1.01 | 1.01 | 0.897 | 0.201 | 0.225 | 0.152 | 0.131 | 0.25
3 | NCI-H1437 | 0.851 | 0.86 | 0.859 | 0.898 | 0.927 | 0.974 | 0.87 | 0.922 | 0.965 | 0.916 | 1.11 | 1.01 | 1.07 | 1.03 | 0.983 | 0.486 | 0.42 | 0.428 | 0.408 | 0.391
4 | NCI-H647 | 0.784 | 0.657 | 0.673 | 0.668 | 0.714 | 1.1 | 1.13 | 1.38 | 0.96 | 1.15 | 1.17 | 1.19 | 1.12 | 1.14 | 1.2 | 0.299 | 0.302 | 0.37 | 0.181 | 0.281
5 | NCI-H838 | 0.424 | 0.434 | 0.357 | 0.378 | 0.39 | 0.979 | 0.795 | 0.973 | 0.812 | 0.844 | 1.12 | 0.964 | 1.07 | 0.851 | 0.908 | 0.321 | 0.244 | 0.295 | 0.276 | 0.224
6 | NCI-H727 | 0.639 | 0.821 | 0.617 | 0.494 | 0.685 | 0.887 | 0.702 | 0.842 | 0.844 | 0.843 | 0.285 | 0.331 | 0.325 | 0.235 | 0.285 | 0.583 | 0.568 | 0.669 | 0.722 | 0.681
7 | NCI-H661 | 0.722 | 0.745 | 0.933 | 0.661 | 0.772 | 1.02 | 0.921 | 1.22 | 0.996 | 1.08 | 0.624 | 0.53 | 0.599 | 0.458 | 0.534 | 0.367 | 0.36 | 0.357 | 0.345 | 0.354
8 | 201T | 0.713 | 0.694 | 0.723 | 0.325 | 0.753 | 1.04 | 1.04 | 1.01 | 1.03 | 1.05 | 1.06 | 1.06 | 1.02 | 0.993 | 1.01 | 0.916 | 0.95 | 0.938 | 0.835 | 0.968
9 | PC-3 [JPC-3] | 0.776 | 0.748 | 0.781 | 0.691 | 0.76 | 1.01 | 0.928 | 0.971 | 0.994 | 0.977 | 0.995 | 0.952 | 0.904 | 0.926 | 0.953 | 0.943 | 0.859 | 0.94 | 0.858 | 0.813
10 | CAL-12T | 0.748 | 0.76 | 0.693 | 0.428 | 0.519 | 0.686 | 0.681 | 0.61 | 0.87 | 0.716 | 0.771 | 0.726 | 0.72 | 1 | 0.892 | 0.389 | 0.32 | 0.3 | 0.276 | 0.31
11 | NCI-H1355 | 0.444 | 0.456 | 0.422 | 0.303 | 0.401 | 1.04 | 1.02 | 1.08 | 0.943 | 1.01 | 0.842 | 0.835 | 0.831 | 0.665 | 0.821 | 0.594 | 0.575 | 0.562 | 0.41 | 0.45
12 | Calu-6 |  |  |  |  |  | 0.822 | 0.829 | 0.948 | 0.824 | 0.752 | 0.984 | 1.02 | 0.897 | 0.852 | 0.955 |  |  |  |  | 
13 | NCI-H1299 |  |  |  |  |  | 0.995 | 0.956 | 1.01 | 0.945 | 0.941 | 1.01 | 0.987 | 0.941 | 1.05 | 1.04 |  |  |  |  | 
14 | NCI-H1703 |  |  |  |  |  | 0.906 | 0.612 | 1.11 | 0.665 | 0.824 | 1.18 | 0.978 | 0.736 | 0.559 | 0.166 |  |  |  |  | 
15 | NCI-H2170 | 0.694 | 0.762 | 0.768 | 0.596 | 0.733 | 1.28 | 1.14 | 1.36 |  | 1.24 |  |  |  |  |  | 0.687 | 0.752 | 0.665 | 0.546 | 0.814
16 | NCI-H1650 | 0.641 | 0.597 | 0.856 | 0.552 | 0.638 | 0.966 | 1.01 | 1.14 | 0.938 | 1.02 |  |  |  |  |  | 0.367 | 0.432 | 0.442 | 0.381 | 0.293
17 | ChaGo-K-1 | 0.521 | 0.613 | 0.577 | 0.42 | 0.547 | 1.18 | 1.06 | 1.43 | 0.959 | 1.14 |  |  |  |  |  | 0.238 | 0.229 | 0.221 | 0.197 | 0.222
18 | IA-LM |  |  |  |  |  | 1.12 | 0.76 | 1.09 | 0.827 | 0.876 | 0.58 | 0.627 | 0.762 | 0.536 | 0.56 |  |  |  |  | 
